According to ChEMBL document CHEMBL1159339, “Oxygenated analogues of gorgosterol and ergosterol from the soft coral Capnella lacertiliensis” (2003):

Legend:
Microbotryum violaceum [1] = assay: Antimicrobial activity against Microbotryum violaceum at 10 ug; format: functional; conditions: read-out: IZ
Microbotryum violaceum [2] = assay: Antimicrobial activity against Microbotryum violaceum at 20 ug; format: functional; conditions: read-out: IZ
[3] = tested on: Aspergillus pseudoglaucus; assay: Antimicrobial activity against Eurotium repens at 20 ug; format: functional; conditions: read-out: IZ
[4] = target: Tyrosine-protein kinase Lck (Homo sapiens) (UniProt P06239); assay: Inhibition of p56 LCK at 200 ug/ml; design: scale not given: the % may be the effect or the level left
Chain of Tyrosine-protein kinase Lck (Homo sapiens) (P06239 2-509 limits assumed): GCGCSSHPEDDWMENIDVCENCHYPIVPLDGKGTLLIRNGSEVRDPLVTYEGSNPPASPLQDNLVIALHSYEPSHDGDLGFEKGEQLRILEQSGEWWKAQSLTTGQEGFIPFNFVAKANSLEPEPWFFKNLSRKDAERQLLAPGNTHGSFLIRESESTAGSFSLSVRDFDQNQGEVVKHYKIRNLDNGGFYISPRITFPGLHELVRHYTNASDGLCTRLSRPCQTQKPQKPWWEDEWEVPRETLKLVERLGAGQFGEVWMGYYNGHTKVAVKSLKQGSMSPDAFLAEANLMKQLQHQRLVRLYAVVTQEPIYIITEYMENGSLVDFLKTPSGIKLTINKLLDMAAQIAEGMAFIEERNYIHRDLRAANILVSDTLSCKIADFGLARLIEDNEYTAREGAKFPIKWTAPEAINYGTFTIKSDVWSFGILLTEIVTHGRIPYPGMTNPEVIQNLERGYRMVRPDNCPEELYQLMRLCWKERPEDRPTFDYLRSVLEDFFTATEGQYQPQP

Microbotryum violaceum [5] = assay: Antimicrobial activity against Microbotryum violaceum at 25 ug; format: functional; conditions: read-out: IZ
[6] = tested on: Aspergillus pseudoglaucus; assay: Antimicrobial activity against Eurotium repens at 10 ug; format: functional; conditions: read-out: IZ

| Activity [4] [%] | Compound | zone of inhibition at 10 µg/disc (Microbotryum violaceum [1]) [mm] | other results |
| --- | --- | --- | --- |
|  | CC(=O)O[C@@H]1C[C@H]2[C@@H]([C@H](O)C=C3C[C@@H](O)CC[C@@]32CO)[C@@H]2CC[C@H]([C@H](C)[C@H]3C[C@]3(C)[C@H](C)C(C)C)[C@@]12C | 2 |  |
|  | CC(=O)O[C@@H]1C[C@H]2[C@@H]([C@H](O)C=C3C[C@@H](O)CC[C@@]32C)[C@@H]2CC[C@H]([C@H](C)[C@H]3C[C@]3(C)[C@H](C)C(C)C)[C@@]12C |  | zone of inhibition at 20 µg/disc (Microbotryum violaceum [2]): 1 mm; zone of inhibition at 20 µg/disc [3]: 2 mm |
| 42 | CC(=O)O[C@@H]1C[C@H]2[C@@H](CC=C3C[C@@H](O)CC[C@@]32C)[C@@H]2CC[C@H]([C@H](C)CC(O)[C@H](C)C(C)C)[C@@]12C (some centres undefined) | 3 |  |
|  | CC(=O)O[C@@H]1[C@H](O)[C@H]2[C@@H](CC=C3C[C@@H](O)CC[C@@]32C)[C@@H]2CC(O)[C@H]([C@H](C)CC[C@H](C)C(C)C)[C@@]12C (some centres undefined) |  | zone of inhibition at 25 µg/disc (Microbotryum violaceum [5]): 1 mm |
| 47 | CC(=O)O[C@@H]1[C@H]2[C@@H](CC=C3C[C@@H](O)CC[C@@]32C)[C@@H]2CC(O)[C@H]([C@H](C)CC[C@H](C)C(C)C)[C@@]2(C)[C@@H]1O (some centres undefined) | 3 | zone of inhibition at 10 µg/disc [6]: 2 mm |
